Values after ≈ are worked out from the molar mass of the structure shown.
tested on: Fe-ADP-Ascorbate induced lipid peroxidation (LPO) in rat brain; experiment: Inhibition of Fe-ADP-ascorbate induced lipid peroxidation (LPO) in rat brain homogenate; assay type: biochemical, Albino rats (Sprague Dawley strain); settings: 37° C., 30 minutes
Description: Inhibition of Fe-ADP-Ascorbate Induced Lipid Peroxidation (LPO) in Rat Brain by DBP and DCPs
Albino rats (Sprague Dawley strain) were sacrificed by cervical dislocation and decapitation. Brains were dissected out and 10% w/v homogenate was prepared in 0.15 M KCl. The brain homogenate was centrifuged at 1500 rpm for 10 minutes and the supernatant was used for the study. The incubation mixture contained in a final volume of 1 ml., brain homogenate (500 μl), distilled water (100 μl) or test compounds dissolved in solvents at different concentrations (10 to 100 μg/ml of the final volume). Peroxidation was initiated by adding FeCl3 (100 μM), ADP (1 mM) and ascorbate (100 μM) to give the final concentration stated. After incubating at 37° C. for 30 minutes, the reaction was stopped by adding acetic acid buffer (1.5 ml, pH 3.5) and thiobarbituric acid solution (1.5 ml, pH 7.4) to 1 ml of LPO mixture. The reaction mixture was heated at 85° C. for 30 minutes, cooled, centrifuged (2000 rpm for 10 minutes) and the absorbance of the supernatant was measured at 532 nm. IC50 values were calculated in the usual way by plotting the concentration of the test compounds versus percent inhibition of LPO.

IC50 (effect on LPO) | Structure (SMILES)
30 µg/mL (≈ 131 µM) | O=c1oc2cc(O)ccc2c2ccc(O)cc12 [3,8-Dihydroxydibenzo-alpha-pyrone]
70 µg/mL (≈ 397 µM) | O=C1O[C@H]([C@@H](O)CO)C(O)=C1O [Ascorbic acid]
56 µg/mL | CC(=O)Oc1c(C)c(C)c2c(c1C)CCC(C)(CCC[C@H](C)CCC[C@H](C)CCCC(C)C)O2 (stereo partly drawn) [Vitamin E acetate]

— patent US20050245434A1, “Oxygenated dibenzo-alpha-pyrone chromoproteins” (priority 2004, published 2005)
